In the experiment the test system is mouse lacrimal gland fibroblasts. The experiment in a line: Cultured lacrimal gland fibroblasts from PBA-treated and vehicle-treated mice (immunoblot, ELISA, qPCR). Type of experiment: cell-based. Here is the method:
Bone marrow transplantation was performed as described in the above section “Bone marrow transplantation,” and the resulting allogeneic bone marrow transplantation recipient mice were divided into two groups. One group was treated with intraperitoneal injection of PBA (10 mg/kg) (Aldrich) while the other was treated with intraperitoneal injection of a solvent vehicle⋅phosphate buffered saline (PBS) (pH 7.4). The allogeneic bone marrow transplantation recipients received once-daily administration of PBA or the solvent vehicle from Day 10 to Day 27 after bone marrow transplantation. They were sacrificed on Day 28 after bone marrow transplantation.
Fibroblasts from a mouse lacrimal gland were cultured by an established method reported by Yaguchi et al. (Yaguchi S, Ogawa Y, Shimmura S, et al., Presence and Physiologic Function of the Renin—Angiotensin System in Mouse Lacrimal Gland. Investigative Ophthalmology & Visual Science, 2012; 53: 5416-5425). A mouse lacrimal gland was collected and cut into small pieces. The tissue pieces were incubated at 37° C. in DMEM (Life Technologies Japan Ltd.) containing 5% of fetal bovine serum (FBS) Sigma), and 5% of an antibiotic. The antibiotic included a 1:1 mixture of streptomycin sulfate (Meiji Seika Pharma Co., Ltd.) and benzylpenicillin potassium (Meiji Seika Kaisha, Ltd.). The small pieces were used to grow fibroblasts starting from 3 to 4 days later. Fibroblasts were cultured in DMEM containing 5% of FBS and 5% of the antibiotic, and were used in experiments after 3 to 5 passages. Trypsin (Becton Dickinson) was used to detach fibroblasts from the culture dish.
The total RNA was extracted from the exorbital lacrimal gland, the proximal portion of the small intestine, the dorsal skin, the liver, the cultured fibroblasts, and the cultured macrophages using a miRNeasy mini kit (Qiagen), and the corresponding complementary DNAs were synthesized using a Rever Tra Ace qPCR RT kit (Toyobo Co., Ltd.). Primers used for analyzing the mRNA expression of the following genes with the TaqMan real-time polymerase chain reaction (PCR) were purchased from Applied Biosystems: housekeeping gene […] (GAPDH), glucose-regulated protein 78 (GRP78), Interleukin-1β (IL-1β), IL-6, IL-10, macrophage chemoattractant protein-1 (MCP-1), and transcription growth factor-β (TGF). A Step One Plus system (Applied Biosystems) was used to perform quantitative real time PCR, and the resulting data was analyzed by the 2^−ΔΔCT method. GAPDH was used as an internal standard for measuring the expression of mRNA.
Tissues of interest were each placed into an Eppendorf tube, and a pre-cooled RIPA buffer solution was then added to the tube. Subsequently, the tissues were each homogenized with an electric homogenizer. Samples were each allowed to stand on ice for 1 hour, and then centrifuged at 15000 rpm for 5 minutes at 4° C. Then, the supernatants were each collected in a fresh tube on ice, and used as a cell lysate. The cell lysates each received the same amount of a 5×Laemmli buffer solution, and each was heated at 100° C. for 5 minutes to denature proteins.
An aliquot of each sample having the same amount of proteins was loaded into a well of an SDS-PAGE gel, and then […]. Proteins were transferred from the gel to a membrane at 15 V for 20 minutes. The membrane was blocked at room temperature for 1 hour with 5% skim milk or 5% BSA (bovine serum albumin) in 1×TBST (a mixture of Tris-buffered saline and Tween 20). Subsequently, the membrane was incubated with a primary antibody at 4° C. overnight. The above primary antibody was diluted 1000 times with 5% skim milk or 5% BSA in 1×TBST. After incubation with the primary antibody, the membrane was washed with 1×TBST (3×10 minutes), and subjected to a secondary antibody at room temperature for 1 hour, and then washed with 1×TBST (3×10 minutes) and 1×TBS (2×10 minutes).
Proteins of interest were visualized by either one of the following two methods. […]
On the technique in general: A western blot detects proteins with antibodies after separation by electrophoresis.

Where [1] appears, read: PBA-treated vs vehicle-treated fibroblasts, immunoblot, n=4.
The mark [2] stands for this setting: cultured fibroblasts from PBA-treated vs vehicle-treated mice, immunoblot.

In the case of `O=C(O)CCCc1ccccc1` [PBA, 4-phenyl-n-butyric acid], the “production of MCP-1 by lacrimal gland fibroblasts” value (PBA-treated vs vehicle-treated fibroblasts, ELISA, n=4) is listed as “decreased”. In addition, under setting [1], the “protein level of CTGF in lacrimal gland fibroblasts” value was “decreased” and the “protein level of HSP47 in lacrimal gland fibroblasts” value is on record as “decreased”. In addition, the “mRNA levels of IL-6 in lacrimal gland fibroblasts” value (PBA-treated vs vehicle-treated fibroblasts, qPCR, n=4) is “decreased”. In addition, under setting [2], the “CHOP in lacrimal gland fibroblasts” value is listed as “markedly inhibited”, the “GRP78 in lacrimal gland fibroblasts” value is “markedly inhibited”, the “phosphorylated IRE1α in lacrimal gland fibroblasts” value is recorded as “markedly inhibited” and the “phosphorylated PERK in lacrimal gland fibroblasts” value is listed as “markedly inhibited”. Besides, under setting [2], the “phosphorylated eIF2α in lacrimal gland fibroblasts” value is given as “markedly inhibited”.

For the origin of these results see patent US20190192458A1, “THERAPEUTIC/PROPHYLACTIC AGENT FOR GRAFT-VERSUS-HOST DISEASE, FIBROCYTE INVASION INHIBITOR, AND INHIBITOR AGAINST TEAR REDUCTION AND REDUCTION IN GOBLET CELLS” (KEIO UNIVERSITY, priority 2016, published 2019).
